Experimental data published in article PMC4701174, “Novel Characteristics of Trypanosoma brucei Guanosine 5'-monophosphate Reductase Distinct from Host Animals” (PLoS Neglected Tropical Diseases, 2016).
One block for each molecule: values may come before it.

Key:
[1] = target: T1, T. brucei guanosine 5'-monophosphate reductase (TbGMPR) (Trypanosoma brucei, UniProt Q57ZS7); assay: NADPH consumption at […] nm, Hill fit; type: biochemical
T1 construct: gene Tb05.1P6.110; recombinant TbGMPR coding region, GST fusion in E. coli, tag cleaved with PreScission protease

[2] = target: T2, HsGMPR2 (human GMPR type 2) (Homo sapiens, UniProt Q9P2T1); assay: NADPH consumption at […] nm, Hill fit; type: biochemical
T2 construct: gene GMPR2; recombinant
T2 sequence (Q9P2T1 1-348): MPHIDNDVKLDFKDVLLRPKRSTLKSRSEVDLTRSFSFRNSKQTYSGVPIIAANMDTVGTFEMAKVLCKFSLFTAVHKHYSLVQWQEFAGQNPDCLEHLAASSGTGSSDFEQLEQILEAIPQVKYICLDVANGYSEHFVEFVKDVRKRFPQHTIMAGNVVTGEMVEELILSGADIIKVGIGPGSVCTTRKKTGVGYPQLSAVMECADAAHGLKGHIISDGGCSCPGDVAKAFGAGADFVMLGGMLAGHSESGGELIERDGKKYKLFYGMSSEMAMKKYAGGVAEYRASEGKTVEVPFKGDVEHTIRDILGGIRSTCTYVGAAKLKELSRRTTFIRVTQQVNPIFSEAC

[3] = target: T3, HsGMPR1 (human GMPR type 1) (Homo sapiens, UniProt P36959); assay: NADPH consumption at […] nm, Hill fit; type: biochemical
T3 construct: recombinant
T3 sequence (P36959 1-345): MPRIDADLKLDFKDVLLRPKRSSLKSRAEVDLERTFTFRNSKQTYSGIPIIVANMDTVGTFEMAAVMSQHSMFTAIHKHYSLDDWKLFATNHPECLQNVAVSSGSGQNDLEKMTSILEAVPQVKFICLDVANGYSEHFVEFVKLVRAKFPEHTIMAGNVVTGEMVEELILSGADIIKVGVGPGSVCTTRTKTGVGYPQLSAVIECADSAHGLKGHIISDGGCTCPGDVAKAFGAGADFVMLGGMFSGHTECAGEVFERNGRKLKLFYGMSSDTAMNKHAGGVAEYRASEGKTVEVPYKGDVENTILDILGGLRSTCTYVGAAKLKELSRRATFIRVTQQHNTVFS

[4] = target: T1, T. brucei guanosine 5'-monophosphate reductase (TbGMPR); assay: NADPH consumption at […] nm, Lineweaver-Burk, competitive inhibition fit (IC50 […]); type: biochemical
purified protein [5] = substrate: NC(=O)C1=CN([C@@H]2O[C@H](COP(=O)(O)OP(=O)(O)OC[C@H]3O[C@@H](n4cnc5c(N)ncnc54)[C@H](OP(=O)(O)O)[C@@H]3O)[C@@H](O)[C@H]2O)C=CC1; assay: purified protein; conditions: varied: cofactor
purified protein [6] = substrate: Nc1nc2c(ncn2[C@@H]2O[C@H](COP(=O)(O)O)[C@@H](O)[C@H]2O)c(=O)[nH]1; assay: purified protein; type: biochemical, Homo sapiens; conditions: NADPH
purified protein [7] = substrate: NC(=O)C1=CN([C@@H]2O[C@H](COP(=O)(O)OP(=O)(O)OC[C@H]3O[C@@H](n4cnc5c(N)ncnc54)[C@H](OP(=O)(O)O)[C@@H]3O)[C@@H](O)[C@H]2O)C=CC1; assay: purified protein; type: biochemical, Trypanosoma brucei; conditions: varied: cofactor
purified protein [8] = substrate: Nc1nc2c(ncn2[C@@H]2O[C@H](COP(=O)(O)O)[C@@H](O)[C@H]2O)c(=O)[nH]1; assay: purified protein; type: biochemical, Trypanosoma brucei; conditions: NADPH

B1: HsGMPR1 (human GMPR type 1) (Homo sapiens) (protein)
chain: T3 sequence (P36959 1-345)
notes: recombinant
Km (purified protein [5]): 34.8 ± 4.3 µM
Km (purified protein [6]): 22.1 ± 2.2 µM

B2: T. brucei guanosine 5'-monophosphate reductase (TbGMPR) (Trypanosoma brucei brucei TREU927) (protein)
chain: MSFNESASIPTGLTYDDVLIIPQHSRVTSRKEVNTTTRLSRNVKLSIPIVASNMDTVCEQRMAVAMAREGGIGILHRFCSIEEQCAMLREVKRAQSFLIESPRIILPHETAREAWEGLNWKGRVGGVGCLLVVNCKNERKLLGIITRHDLKLADESTTVESLMTPVDKMVVSTNTSISLEEVTHLMRKGRTANVPIVGQNGQLLYLVTLSDVVKLRKNKQASLDSRGRLLVGAAVGVKKDDMNRAIRLVEAGADVLVVDIAHGHSDLCINMVKRLKGDPRTASVDIIAGNIASAEAAEALIDAGADGLKIGVGPGSICITRLVAGAGVPQLSAVLACTRVARRRGVPCIADGGLRTSGDISKAIGAGADTVMLGNMLAGTDEAPGRVLVKDGQKVKIIRGMAGFGANLSKAERERTQDEDVFSSLVPEGVEGSVACKGPVGPIVRQLVGGLRSGMSYSGAKSIEEMQRRTRFVRMTGAGLRESGSHGVAKL
notes: recombinant TbGMPR coding region, GST fusion in E. coli, tag cleaved with PreScission protease
Km (purified protein [7]): 12.3 ± 0.8 µM
Km (purified protein [8]): 89.3 ± 9.0 µM

Now from value to molecule:

IC50 [1]: 23.7 ± 1.9 µM
IC50 [2]: 69.3 ± 7.8 µM
IC50 [3]: 120 ± 16.1 µM
Molecule: NC(=O)c1ncn([C@@H]2O[C@H](COP(=O)(O)O)[C@@H](O)[C@H]2O)c1O [MZP, mizoribine 5’-monophosphate]

Ki [4]: 4.46 ± 0.46 µM
Molecule: NC(=O)c1ncn([C@@H]2O[C@H](COP(=O)(O)O)[C@@H](O)[C@H]2O)n1 [RMP, ribavirin 5'-monophosphate]
